1 compound from patent US20190307728A1, “METHODS OF TREATMENT WITH A 2,4,5-TRISUBSTITUTED 1,2,4-TRIAZOLONE” (Bayer Pharma Aktiengesellschaft, priority 2018, published 2019) can be followed below.

Assay in all cases: Cell proliferation panel assay
What all share (assay type): cell-based

In assay [1] the test system is Colo 320DM. The settings on record: Homo sapiens, 72 h, Colorectal carcinoma, 3-day incubation, read-out: Cell Count IC50.
Assay [2] concerns A498. The settings on record: Homo sapiens, 72 h, A498, Renal cell carcinoma, 3-day incubation. The protocol: (§1) Cells were grown in RPMI 1640, 10% FBS, 2 mM L-alanyl-L-glutamine, 1 mM Na pyruvate or a special medium. Cells were seeded into 384-well plates and incubated in a humidified atmosphere of 5% CO2 at 37° C. Compounds were added the day following cell seeding. At the same time, a time zero untreated cell plate was generated. After a 3-day incubation period, cells were fixed and stained to allow fluorescence imaging of nuclei.
(§2) Compounds were serially diluted in half-log steps from the highest test concentration 10 μM, and assayed over 10 concentrations with a maximum assay concentration of 0.1% DMSO. Automated fluorescence microscopy was carried out using a Molecular Devices ImageXpress Micro XL high-content imager, and images were collected with a 4× objective. 16-bit TIFF images were acquired and analyzed with MetaXpress 5.1.0.41 software.
(§3) Cell proliferation was measured by the fluorescence intensity of an incorporated nuclear dye. The output is referred to as the relative cell count, where the measured nuclear intensity is transformed to percent of control (POC) using the following formula: […]
(§4) Cellular response parameters were calculated using nonlinear regression to a sigmoidal single-site dose response model:
(§5) Where y is a response measured at concentration x, A and B are the lower and upper limits of the response, C is the concentration at the response midpoint (EC50), and D is the Hill Slope (Fallahi-Sichani, M., S. Honardejad, L. M. Heiser, J. W. Gray, and P. K. Sorger (2013). Metrics other than potency reveal systematic variation in responses to cancer drugs. Nat. Chem. Biol. 9: 708-714.).
(§6) Cell count IC50 is the test compound concentration at 50% of maximal possible response. EC50 is the test compound concentration at the curve inflection point or half the effective response (parameter C of the fitted curve solution).

The subject of assay [3] is PANC-1. The settings on record: Homo sapiens, 72 h, PANC-1, Pancreatic cancer, 3-day incubation. How it is done:
as §1, §2, §3, §4, §5, §6

Assay [4] relates to ARH-77. Particulars: Homo sapiens, 72 h; ARH-77, Leukemia, 3-day incubation; read-out: Cell Count EC50.
The test system of assay [5] is CEM-C1. Particulars: 72 h; CEM-C1, Leukemia, 3-day incubation; read-out: Cell Count EC50.
The test system of assay [6] is CaOV3. Particulars: Homo sapiens, Caov-3, 72 h; CaOV3, Ovarian carcinoma, 3-day incubation; read-out: Cell Count IC50.
Assay [7] concerns DMS114. The settings on record: Homo sapiens, DMS-114, 72 h; DMS114, Lung cancer, 3-day incubation; read-out: Cell Count IC50.
Assay [8] relates to G-401. Particulars: Homo sapiens, 72 h; G-401, Kidney cancer, 3-day incubation; read-out: Cell Count IC50.
The subject of assay [9] is HT-29. The settings on record: Homo sapiens, 72 h; HT-29, Colorectal carcinoma, 3-day incubation; read-out: Cell Count IC50.
For assay [10], the system named is MEG01. The settings on record: Homo sapiens, MEG-01, 72 h; MEG01, Leukemia, 3-day incubation; read-out: Cell Count EC50.
The subject of assay [11] is MHH-PREB-1. The settings on record: Homo sapiens, 72 h; MHH-PREB-1, Lymphoma, 3-day incubation; read-out: Cell Count IC50.
Assay [12] concerns Mia PaCa-2. Particulars: Homo sapiens, 72 h; Mia PaCa-2, Pancreatic cancer, 3-day incubation; read-out: Cell Count IC50.
Assay [13] deals with MV-4-11. Particulars: Homo sapiens, MV4-11, 72 h; MV-4-11, Leukemia, 3-day incubation; read-out: Cell Count IC50.
In assay [14] the test system is SU.86.86. Particulars: Homo sapiens, 72 h; SU.86.86, Pancreatic cancer, 3-day incubation; read-out: Cell Count IC50.
Assay [15] concerns U266B1. Particulars: 72 h; U266B1, Multiple Myeloma, 3-day incubation; read-out: Cell Count IC50.

SMILES strings stand for the structures. Bounds are passed on as bounds.

As for `CCn1c(CO)nn(-c2cc(O[C@@H](C)C(F)(F)F)c(C(=O)Nc3c(F)cccc3Cl)cc2F)c1=O` [Example 1, N-(2-chloro-6-fluorophenyl)-4-[4-ethyl-3-(hydroxymethyl)-5-oxo-4,5-dihydro-1H-1,2,4-triazol-1-yl]-5-fluoro-2-{[(2S)-1,1,1-trifluoropropan-2-yl]oxy}benzamide], the half-inhibitory concentration (IC50) (as a rule, the concentration at which inhibition is half-maximal) is 5.1 nM in assay [1]; > 10 µM in assay [2] (read-out: Cell Count IC50); > 10 µM in assay [3] (read-out: Cell Count IC50); > 10 µM in [6]; > 10 µM in assay [7]; > 10 µM in assay [8]. The IC50 in assay [9] is 11 nM; in assay [11] it was 0.83 nM; in assay [12], > 10 µM; in [13], 1.2 nM; in [14], > 10 µM; in assay [15], > 10 µM. Besides, the EC50 (commonly the midpoint of the concentration-response curve) in [2] (read-out: Cell Count EC50) was > 10 µM; in [3] (read-out: Cell Count EC50), 3.5 nM; in [4] it was 0.92 nM; in [5], 0.91 nM; in [10], 0.66 nM.
